Measured values from ChEMBL document CHEMBL1201862, “PubChem BioAssay data set” (2004).
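Grown in 96-well plates, cells were treated for 48 hours with each compound at five concentrations. Insufficient inhibition: endpoint recorded as highest concentration tested. GI50 marks 50% less growth.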 Calls of active or inactive are those of the source. No stated cut-off is given here; in the data, active = GI50 up to about 1.1 µM and inactive = higher.

How the values were obtained:
Assay in all cases: NCI-60 cell line screen, 48 h
RPMI-8226 = tested on: RPMI-8226
ACHN = tested on: ACHN
OVCAR-8 = tested on: OVCAR-8
NCI-H23 = tested on: NCI-H23
NCI-H522 = tested on: NCI-H522
MOLT-4 = tested on: MOLT-4
UACC-62 = tested on: UACC-62
NCI-H226 = tested on: NCI-H226
SR = tested on: SR
HCT-116 = tested on: HCT-116
HT-29 = tested on: HT-29
SK-MEL-2 = tested on: SK-MEL-2
M14 = tested on: M14
A498 = tested on: A498
EKVX = tested on: EKVX
Malme-3M = tested on: Malme-3M
OVCAR-3 = tested on: OVCAR-3
786-0 = tested on: 786-0

Measured: GI50

CC(=O)c1ccc(NC(=O)/C(=N\NC(N)=O)C(C#N)CC(C)(C)C=O)cc1 (stereo not given)
inactive: RPMI-8226 > 100 µM | ACHN > 100 µM | OVCAR-8 > 100 µM | NCI-H23 > 100 µM | NCI-H522 > 100 µM | MOLT-4 > 100 µM | UACC-62 > 100 µM | NCI-H226 > 100 µM | SR > 100 µM | HCT-116 > 100 µM | HT-29 > 100 µM | SK-MEL-2 > 100 µM | M14 > 100 µM | A498 > 100 µM | EKVX > 100 µM

COC(=O)CC(=O)OSc1ccccc1
inactive: RPMI-8226 15.7 µM | ACHN 18.2 µM | NCI-H23 24.7 µM | NCI-H522 1.61 µM | Malme-3M 42.4 µM | MOLT-4 4.63 µM | UACC-62 14.9 µM | NCI-H226 24.6 µM | SR 6.03 µM | HCT-116 12.9 µM | OVCAR-3 14.6 µM | SK-MEL-2 34.6 µM | M14 17.6 µM | A498 17.3 µM | EKVX 17.6 µM

CCOC(=O)/C(=C/c1ccco1)P(=O)(OCC)OCC
inactive: RPMI-8226 > 100 µM | ACHN > 100 µM | OVCAR-8 > 100 µM | NCI-H23 > 100 µM | NCI-H522 > 100 µM | Malme-3M > 100 µM | MOLT-4 > 100 µM | UACC-62 > 100 µM | NCI-H226 > 100 µM | SR > 100 µM | HCT-116 > 100 µM | HT-29 > 100 µM | SK-MEL-2 > 100 µM | M14 > 100 µM | 786-0 > 100 µM | A498 > 100 µM | EKVX > 100 µM

CC(=O)Nc1ccc(/C=C(\NC(=O)c2ccccc2)C(=O)NNS(=O)(=O)c2ccc(C)cc2)cc1
inactive: RPMI-8226 22.5 µM | ACHN > 100 µM | OVCAR-8 > 100 µM | NCI-H23 > 100 µM | NCI-H522 > 100 µM | Malme-3M > 100 µM | MOLT-4 > 100 µM | UACC-62 > 100 µM | NCI-H226 > 100 µM | SR 20.1 µM | HCT-116 > 100 µM | OVCAR-3 > 100 µM | HT-29 > 100 µM | SK-MEL-2 > 100 µM | M14 > 100 µM | 786-0 > 10 µM | EKVX > 100 µM

Cc1cc(O)c(C(=O)CC2(O)C(=O)Nc3c(Cl)cc(Cl)cc32)c(=O)o1 (stereo not given)
inactive: RPMI-8226 55.5 µM | ACHN > 100 µM | OVCAR-8 > 100 µM | NCI-H23 > 100 µM | NCI-H522 > 100 µM | Malme-3M > 100 µM | MOLT-4 > 100 µM | UACC-62 > 100 µM | NCI-H226 88.1 µM | SR > 100 µM | HCT-116 > 100 µM | OVCAR-3 > 100 µM | HT-29 > 100 µM | SK-MEL-2 > 100 µM | M14 > 100 µM | 786-0 > 100 µM | A498 > 100 µM | EKVX > 100 µM

Cc1nc(O)nc2c1C(NCCCN(C)C)c1cc(Cl)ccc1N2 (stereo not given)
inactive: RPMI-8226 17.3 µM | ACHN 16.6 µM | OVCAR-8 15.3 µM | NCI-H23 17.5 µM | NCI-H522 15.2 µM | Malme-3M 16.7 µM | MOLT-4 19.8 µM | UACC-62 13.4 µM | NCI-H226 16.6 µM | SR 4.81 µM | HCT-116 15 µM | OVCAR-3 17.4 µM | HT-29 10.4 µM | SK-MEL-2 17.4 µM | M14 9.59 µM | 786-0 14.6 µM | EKVX 16.3 µM

O=C(c1ccco1)c1ccccc1C(=O)c1ccco1
inactive: ACHN > 100 µM | OVCAR-8 > 100 µM | NCI-H23 > 100 µM | Malme-3M > 100 µM | MOLT-4 > 100 µM | UACC-62 > 100 µM | NCI-H226 > 100 µM | SR > 100 µM | HCT-116 > 100 µM | OVCAR-3 > 100 µM | HT-29 > 100 µM | SK-MEL-2 > 100 µM | M14 > 100 µM | 786-0 > 100 µM | A498 > 100 µM | EKVX > 100 µM

O=C1Sc2ccccc2C(=O)N2CCSC12 (stereo not given)
inactive: RPMI-8226 > 100 µM | OVCAR-8 > 100 µM | NCI-H23 > 100 µM | Malme-3M > 100 µM | MOLT-4 > 100 µM | UACC-62 > 100 µM | SR > 100 µM | HCT-116 > 100 µM | OVCAR-3 > 100 µM | SK-MEL-2 > 100 µM | M14 > 100 µM | A498 31 µM

O=C(Nc1cccc(O)c1)C(=O)C1C(=O)NC(=S)NC1=O
inactive: RPMI-8226 > 100 µM | ACHN > 100 µM | OVCAR-8 > 100 µM | NCI-H23 > 100 µM | NCI-H522 > 100 µM | Malme-3M > 100 µM | MOLT-4 > 100 µM | UACC-62 > 100 µM | NCI-H226 > 100 µM | SR > 100 µM | HCT-116 > 100 µM | OVCAR-3 > 100 µM | HT-29 > 100 µM | M14 > 100 µM | 786-0 > 100 µM | A498 > 100 µM | EKVX > 100 µM

Cc1nc2c(n1-c1ccccc1)C(=O)c1ccccc1C2=O
inactive: ACHN 56.9 µM | OVCAR-8 42.4 µM | NCI-H23 22.4 µM | NCI-H522 25.2 µM | Malme-3M 11.3 µM | MOLT-4 30.3 µM | UACC-62 23.4 µM | NCI-H226 58.1 µM | SR 37.1 µM | HCT-116 22.2 µM | OVCAR-3 20.7 µM | HT-29 32.7 µM | SK-MEL-2 > 100 µM | M14 42 µM | 786-0 76.7 µM | A498 > 100 µM | EKVX > 100 µM

Oc1cc(-c2ccc(Oc3ccccc3)cc2)nc2cc3c(cc12)OCO3
inactive: RPMI-8226 > 100 µM | ACHN > 100 µM | OVCAR-8 > 100 µM | NCI-H23 > 100 µM | Malme-3M > 100 µM | MOLT-4 > 100 µM | UACC-62 > 100 µM | NCI-H226 27.5 µM | SR > 100 µM | HCT-116 > 100 µM | OVCAR-3 > 100 µM | HT-29 > 100 µM | SK-MEL-2 > 100 µM | M14 > 100 µM | 786-0 > 100 µM | A498 > 100 µM | EKVX > 100 µM

CCOC(=O)[N-]c1ccc(S(=O)(=O)[O+](C)CCl)cc1.CCOC(=O)[N-]c1ccc(S(=O)(=O)[O+](C)CCl)cc1.NC(=O)N=O.NC(=O)OCCCl
inactive: OVCAR-8 > 100 µM | NCI-H23 > 100 µM | Malme-3M > 100 µM | MOLT-4 > 100 µM | UACC-62 > 100 µM | SR > 100 µM | HCT-116 > 100 µM | HT-29 > 100 µM | SK-MEL-2 > 100 µM | M14 > 100 µM | 786-0 > 100 µM | A498 > 100 µM
